What all share (format): cell-based
The subject of assay [1] is Klebsilla pneumoniae No. 363. Description: Antibacterial activity (MIC), Klebsiella pneumoniae No. 363. The procedure:
(§1) Free acids found in Examples 2 to 5 are dissolved in dilute aqueous sodium hydrogencarbonate solution to yield the corresponding aqueous sodium salts solutions.

A further assay concerns Escherichia coli No. 73. In words: Antibacterial activity (MIC), Escherichia coli No. 73. The procedure:
as §1

Assay [2] concerns gram negative bacteria resistant to cephalosporins. In words: antibacterial activity against gram negative bacteria resistant to cephalosporins. The following applies: compared with the compound wherein Y is hydrogen.
The mark [3] stands for this setting: NO.363, Klebsiella pneumoniae No. 363, innoculum size 10^6.
Where [4] appears, read: NO.363, Klebsiella pneumoniae No. 363, innoculum size 10^8.

Structures are written as SMILES. Converted amounts (≈) assume the structure as drawn. Where only a bound is given, the exact number is not on record here.

For the molecule `CCN1CCN(C(=O)NC(C(=O)N[C@@H]2C(=O)N3C(C(=O)O)=C(CSc4nnnn4C)CS[C@H]23)c2ccc(O)cc2)C(=O)C1=O` (stereo partly shown) [Y H], the MIC in assay [1] (setting [3]) was 100 µg/mL (≈ 155 µM); in assay [1] (setting [4]), over 100 µg/mL; against Escherichia coli No. 73 (innoculum size 10^6), 25 µg/mL (≈ 38.7 µM); in the assay on Escherichia coli No. 73 (innoculum size 10^8), over 100 µg/mL.
With `CCN1CCN(C(=O)NC(C(=O)NC2(OC)C(=O)N3C(C(=O)O)=C(CSc4nnnn4C)CSC32)c2ccc(O)cc2)C(=O)C1=O` (stereo not shown) [Y OCH3], the MIC turned out to be 0.8 µg/mL (≈ 1.18 µM) in assay [1] (setting [3]), 1.6 µg/mL (≈ 2.37 µM) in assay [1] (setting [4]), 1.6 µg/mL (≈ 2.37 µM) against Escherichia coli No. 73 (innoculum size 10^6) and 3.1 µg/mL (≈ 4.59 µM) against Escherichia coli No. 73 (innoculum size 10^8). For the same molecule, the “antibacterial activity against gram negative bacteria resistant to cephalosporins” value in assay [2] was “more potent antibacterial activity”.
Take `CO[C@@]1(NC(=O)Cc2cccs2)C(=O)N2C(C(=O)O)=C(COC(N)=O)CS[C@@H]21` [cefoxitin]: the MIC in assay [1] (setting [3]) was 1.6 µg/mL (≈ 3.74 µM); in assay [1] (setting [4]) it was 6.3 µg/mL (≈ 14.7 µM); in the assay with Escherichia coli No. 73 (innoculum size 10^6), 12.5 µg/mL (≈ 29.2 µM); in the assay with Escherichia coli No. 73 (innoculum size 10^8), 12.5 µg/mL (≈ 29.2 µM).

The values above are taken from patent publication US4211779A, “7α-Methoxy substituted cephalosporins” (Shionogi & Co., Ltd., priority 1976, dated 1980).
